Results on 38 compounds are retold here after the C3SDB collision cross section collection.

The conditions of the series: instrument: DT, single field, calibrated with Agilent tune mix (Agilent).

Molecules are shown by their SMILES. “And” between values parts separate entries of the source, which are not always exact repeats. Equal values may be shown once.

In the case of `Nc1ccn([C@@H]2O[C@H](COP(=O)(O)OP(=O)(O)O)[C@@H](O)[C@H]2O)c(=O)n1` [CDP], the “collision cross section (N2)” value ([M+H]+) is 175.1 Å².
Consider `CCCCCCCCCC(=O)O` [Capric acid], for which, for the setting “[M-H]-”, the “collision cross section (N2)” value was found to be 146.87 Å².
For `O=C(/C=C/c1ccc(O)c(O)c1)O[C@@H]1C[C@](O)(C(=O)O)C[C@@H](O)[C@H]1O` [Chlorogenic acid], the “collision cross section (N2)” value ([M+H]+) was found to be 185.1 Å² and the “collision cross section (N2)” value ([M+Na-2H]-) amounted to 173.79 Å².
As to `C[C@H](CCC(=O)O)[C@H]1CC[C@H]2[C@@H]3[C@H](O)C[C@@H]4C[C@H](O)CC[C@]4(C)[C@H]3C[C@H](O)[C@]12C` [Cholic acid], the “collision cross section (N2)” value was found to be 197.3 Å² ([M+Na]+) and 200.72 Å² ([M-H]-).
For `CC(C)(COP(=O)(O)OP(=O)(O)OC[C@H]1O[C@@H](n2cnc3c(N)ncnc32)[C@H](O)[C@@H]1OP(=O)(O)O)[C@@H](O)C(=O)NCCC(=O)NCCS` [Coenzyme A], the “collision cross section (N2)” value reads like this: ([M+H]+) 240.4 Å²; ([M-H]-) 241.54 Å².
`C[C@]12CCC(=O)C=C1CC[C@@H]1[C@@H]2CC[C@@]2(C)[C@H]1CC[C@]2(O)C(=O)CO` [Cortexolone]: where the note is “[M+H]+”, the “collision cross section (N2)” value amounted to 187.4 Å².
Consider `C[C@]12C[C@H](O)[C@H]3[C@@H](CCC4=CC(=O)CC[C@@]43C)[C@@H]1CC[C@@H]2C(=O)CO` [Corticosterone], for which the “collision cross section (N2)” value is listed as 186.8 Å² ([M+H]+) and 186.46 Å² ([M-H]-).
`COc1cc(/C=C/C(=O)CC(=O)/C=C/c2ccc(O)c(OC)c2)ccc1O` [Curcumin]: the “collision cross section (N2)” value by setting is: ([M+H]+) 201.6 Å²; ([M+Na-2H]-) 178.82 Å².
On to `N[C@@H](CSS(=O)(=O)O)C(=O)O` [Cysteine-S-sulfate], for which the “collision cross section (N2)” value runs as follows: ([M+H]+) 144.2 Å²; ([M+Na-2H]-) 133.29 Å².
Regarding `Nc1ccn([C@@H]2O[C@H](COP(=O)(O)OP(=O)(O)O)[C@@H](O)[C@H]2O)c(=O)n1` [Cytidine 5'-diphosphate], the “collision cross section (N2)” value ([M-H]-) amounted to 171.31 Å².
Same read-out and setting: the figure for `N[C@H](CC(=O)O)C(=O)O` [D-Aspartic acid] is 116.91 Å².
Turning to `O=C(CO)[C@@H](O)[C@H](O)[C@H](O)COP(=O)(O)O` [D-Fructose-6-phosphate], the “collision cross section (N2)” value ([M+Na]+) was found to be 154.2 Å².
Regarding `OC1OC[C@@H](O)[C@@H](O)[C@H]1O` (stereo partly drawn) [D-Ribose], the “collision cross section (N2)” value ([M+Na]+) was 135.3 Å².
On to `OC[C@@H](O)[C@@H](O)[C@H](O)[C@@H](O)CO` [D-Sorbitol], for which the “collision cross section (N2)” value reads like this: ([M+Na]+) 142.5 Å²; ([M-H]-) 129.64 Å².
In the same order, the values of `O=C(O)[C@H]1OC(O)[C@H](O)[C@@H](O)[C@H]1O` (stereo partly drawn) [D-galacturonic acid] are 143.7 Å² and 128.3 Å².
Turning to `O=C([O-])[C@H](O)[C@@H](O)[C@H](O)[C@H](O)CO` [D-gluconate], the “collision cross section (N2)” value ([M+Na]+) stood at 145.8 Å².
Turning to `CCCCCCCCCC(=O)SCCNC(=O)CCNC(=O)[C@H](O)C(C)(C)COP(=O)(O)OP(=O)(O)OC[C@H]1O[C@@H](n2cnc3c(N)ncnc32)[C@H](O)[C@@H]1OP(=O)(O)O` [Decanoyl-CoA], the “collision cross section (N2)” value runs as follows: ([M+H]+) 277 Å²; ([M-H]-) 276 Å².
`Nc1nc(=O)c2ncn([C@H]3C[C@H](O)[C@@H](CO)O3)c2[nH]1` [Deoxyguanosine]: the “collision cross section (N2)” value is given as 171.7 Å² ([M+Na]+) and 156.76 Å² ([M-H]-).
As to `Cc1cn([C@H]2C[C@H](O)[C@@H](COP(=O)(O)OP(=O)(O)O)O2)c(=O)[nH]c1=O` [Deoxythymidine 5'-diphosphate], the “collision cross section (N2)” value is, setting by setting: ([M+Na]+) 177.6 Å²; ([M-H]-) 172.11 Å².
`O=c1ccn([C@H]2C[C@H](O)[C@@H](COP(=O)(O)O)O2)c(=O)[nH]1` [Deoxyuridine monophosphate]: the “collision cross section (N2)” value reads like this: ([M+Na]+) 167.5 Å²; ([M-H]-) 156 Å².
For the compound `C[C@@H]1NC(=O)N[C@@H]1CCCCCC(=O)O` [Dethiobiotin], the “collision cross section (N2)” value was 162.06 Å² ([M+2Na-3H]-) and 144.1 Å² ([M+H]+).
As for `NC(CCCC(N)C(=O)O)C(=O)O` (configuration not stated) [Diaminopimelic acid], the “collision cross section (N2)” value reads like this: ([M+H]+) 140.8 Å²; ([M-H]-) 134.28 Å².
As to `CC1CNC(=O)NC1=O` (configuration not stated) [Dihydrothymine], the “collision cross section (N2)” value ([M+H]+) came out at 131.2 Å².
With `O=C(CO)COP(=O)(O)O` [Dihydroxyacetone phosphate], the “collision cross section (N2)” value ([M+Na]+) is given as 146.7 Å².
With `CCCCCCCCCCCC(=O)O` [Dodecanoic acid], the “collision cross section (N2)” value ([M-H]-) worked out at 152.58 Å².
Regarding `O=C(O)CN(CCN(CC(=O)O)CC(=O)O)CC(=O)O` [EDTA], the “collision cross section (N2)” value runs as follows: ([M+H]+) 159.6 Å²; ([M-H]-) 151.17 Å².
For `C=C1CC[C@H](O)C/C1=C/C=C1\CCC[C@]2(C)[C@@H]([C@H](C)/C=C/[C@H](C)C(C)C)CC[C@@H]12` [Ergocalciferol], the “collision cross section (N2)” value ([M+H]+) is 202.4 Å² and 203.2 Å².
Take `C[C@]12CC[C@@H]3c4ccc(O[C@@H]5O[C@H](C(=O)O)[C@@H](O)[C@H](O)[C@H]5O)cc4CC[C@H]3[C@@H]1CCC2=O` [Estrone-3-glucuronide]: under “[M-H]-”, the “collision cross section (N2)” value is given as 215.74 Å².
In the case of `CCO[C@@H]1O[C@H](C(=O)O)[C@@H](O)[C@H](O)[C@H]1O` [Ethyl glucuronide], under “[M-H]-”, the “collision cross section (N2)” value is 143.97 Å².
On to `CC(C)=CCC/C(C)=C/CC/C(C)=C/COP(=O)(O)OP(=O)(O)O` [Farnesyl pyrophosphate], for which, where the note is “[M-H]-”, the “collision cross section (N2)” value was determined as 183.85 Å².
For `Cc1cc2nc3c(=O)[nH]c(=O)nc-3n(C[C@H](O)[C@H](O)[C@H](O)COP(=O)(O)O)c2cc1C` [Flavin mononucleotide], the “collision cross section (N2)” value runs as follows: ([M+H]+) 199.1 Å²; ([M-H]-) 194.92 Å².
Regarding `O=P(O)(O)OC[C@H]1O[C@@](O)(COP(=O)(O)O)[C@@H](O)[C@@H]1O` [Fructose 1,6-bisphosphate], for the setting “[M+Na]+”, the “collision cross section (N2)” value is given as 168.2 Å².
For the compound `CCCCC/C=C\C/C=C\C/C=C\CCCCC(=O)O` [Gamma-Linolenic acid], the “collision cross section (N2)” value ([M-H]-) is reported as 172.84 Å².
Turning to `O=P(O)(O)OC[C@H]1OC(O)[C@H](O)[C@@H](O)[C@@H]1O` (some centres not stated) [Glucose 6-phosphate], the “collision cross section (N2)” value ([M+Na]+) stood at 158.1 Å².
As for `O=P(O)(O)OCC(O)CO` (configuration not stated) [Glycerol 3-phosphate], where the note is “[M-H]-”, the “collision cross section (N2)” value was found to be 124.86 Å².
As to `C[C@H](CCC(=O)NCC(=O)O)[C@H]1CC[C@H]2[C@@H]3[C@H](O)C[C@@H]4C[C@H](O)CC[C@]4(C)[C@H]3C[C@H](O)[C@]12C` [Glycocholic acid], the “collision cross section (N2)” value ([M+Na]+) is 202 Å² and the “collision cross section (N2)” value ([M-H]-) came to 200.58 Å².
Consider `C[C@H](CCC(=O)NCC(=O)O)[C@H]1CC[C@H]2[C@@H]3CC[C@@H]4C[C@H](O)CC[C@]4(C)[C@H]3CC[C@]12C` [Glycolithocholic acid], for which the “collision cross section (N2)” value reads like this: ([M+H]+) 200.9 Å²; ([M+Na-2H]-) 205.49 Å².
With `COc1ccc2c(c1)[nH]c1c(C)nccc12` [Harmine], the “collision cross section (N2)” value came to 146 Å² ([M+H]+) and 145.28 Å² ([M-H]-).
